# Test results taken from PMC10675340, “Preparation, Radiolabeling with ^68Ga/^177Lu and Preclinical Evaluation of Novel Angiotensin Peptide Analog: A New Class of Peptides for Breast Cancer Targeting” (Pharmaceuticals, 2023).
# Where a SMILES comes first, the peptide text is derived from it. Where no end group is shown, it is not given here. [ ]: non-standard residue; d: D form. The star is where a group is joined. DOTA = O=C(O)CN1CCN(CC(=O)O)CCN(CC(=O)*)CCN(CC(=O)O)CC1; βAla = NCCC(=O)O
# How the values were obtained:
# Balb/c mice = assay: In vivo biodistribution in normal Balb/c mice; set-up: species or system mouse; details: Balb/c mice
# Experimental: The in vivo biodistribution of ^68Ga-labeled AngII peptide analog was carried out in female Balb/c mice, at various time points, to observe the uptake in the normal tissues and organs and find the excretion route of the radiolabeled peptides. […] Low uptake and retention of the radiopeptide in the liver varying from 1.54 ± 0.28% ID/g at 45 min to 0.48 ± 0.17% ID/g at 2 h p.i. is probably related to the high hydrophilicity (log p = −0.55 ± 0.11) of the ^68Ga-labeled AngII peptide analog. […] The efficient clearance from the kidneys is possibly associated with the urinary excretion of the radiopeptide. […] The low amount of uptake in the bone (up to 0.37 ± 0.14% ID/g) (Table 2) indicates the minimal breakdown of the ^68Ga-labeled AngII peptide complex in vivo combined with the minor release of free ^68Ga. These findings are in agreement with the high in vitro metabolic stability observed in the human plasma for the radiolabeled AngII peptide. The accumulation in the extremely vascular organ lungs was also low (up to 1.11 ± 0.37% ID/g) signifying a low trapping by the lungs.
# Approval from the Institutional Animal Care and Use Committee was obtained for the animal protocol used. Additionally, strict international regulations govern the safe and proper use of laboratory animals employed during animal experiments. In vivo, biodistribution was performed on healthy female mice according to the methods essentially described previously. In summary, Balb/c mice (n = 5 per time point, body mass 20–25 g) at 45 min and 2 h were administered with the HPLC-purified AngII peptide (~1 µg, 100 µL, 0.925–1.85 MBq; 25–50 µCi) via lateral tail vein injection. At the specified time points, the animals were sacrificed by cervical dislocation. A fraction of the blood was collected from cardiac puncture. Urine was also collected and measured with the bladder contents. Major organs, such as the lungs, pancreas, stomach, liver, heart, kidneys, and intestines were isolated, weighed, and measured for radioactivity. The uptake values of the radiolabeled peptide in different organs are expressed as the percent injected dose per gram (% ID/g) of tissue/organ. The radioactivity in the urine with bladder contents is shown as the percent of the injected dose per organ (% ID/organ). To calculate the injected dose, a standard (20-fold dilution of injected dose) was prepared and counted together with animal tissue samples.
# [1] = In vitro metabolic stability in human plasma; type: in vitro ADME; details: 37 °C, radio-HPLC
# Experimental: High proteolytic stability is an important aspect of the tumor-targeting peptides to deliver the highest possible tumor-targeting effect. The extent of proteolytic degradation of the ^177Lu-AngII peptide was determined by incubating the radiolabeled peptide with human plasma at 37° C for up to 5 h. […] A limited release of free ^177Lu amount (up to 10%) indicates the high in vitro plasma stability of the radiolabeled peptide, with low enzymatic breakdown by plasma proteases (Figure 2).
# Human plasma was obtained from the institutional blood bank from volunteers’ blood donors (with consent). The metabolic stability of ^177Lu-DOTA-AngII peptide was determined following a method essentially as described previously. In summary, the radiolabeled peptide (50 μL) was mixed with plasma (400 μL) and incubated in duplicate at 37 °C for up to 5 h. After incubation, the plasma proteins were precipitated using a mixture of CH3CN/EtOH (1:1 v/v, 400 μL). The supernatant layer was collected by centrifugation (5000 rpm for 5 min), filtered through a 0.2-µm Millex GP filter, and analyzed by radio-HPLC to assess the product stability.
# [2] = tested on: human breast cancer cells; details: cited from earlier work
# Experimental: The values were 27.73 ± 5.97 nM for MDA-MB-231 and 35.14 ± 7.09 nM for the MCF7 breast cancer cell line. Thes ...
Compound,Biological and excretion pattern compared with the ^68Ga-labeled counterpart (Balb/c mice),"remaining at 5 h ([1]; human plasma 400 μL + 50 μL radiopeptide, duplicate, CH3CN/EtOH precipitation, read-out: Radioactivity still associated with the radiolabeled peptide) [%]","Release of free ^177Lu ([1]; human plasma, 5 h)",Kd [2] [nM]
"CC[C@H](C)[C@H](NC(=O)[C@H](Cc1ccc(O)cc1)NC(=O)[C@@H](NC(=O)[C@H](CCCNC(=N)N)NC(=O)[C@H](CC(=O)O)NC(=O)CCNC(=O)[C@H](CCCCN)NC(=O)CN1CCN(CC(=O)O)CCN(CC(=O)O)CCN(CC(=O)O)CC1)C(C)C)C(=O)N[C@@H](Cc1c[nH]cn1)C(=O)N1CCC[C@H]1C(=O)N[C@@H](Cc1ccccc1)C(=O)N[C@@H](Cc1c[nH]c2ccccc12)C(=O)N[C@@H](CCCCN)C(=O)N[C@@H](Cc1ccc(O)cc1)C(N)=O [^177Lu-DOTA-AngII peptide, metal not drawn] ({DOTA}-K[βAla]DRVYIHPFWKY-NH2)",more or less the same biological and excretion pattern,> 90,up to 10%,–
"^125I-angiotensin II: radioiodinated angiotensin II from the literature, ref 13 (DRVYIHPF; also: radioiodinated (125I label), site not given here; UniProt P01019 25-32, looked up)",–,–,–,~60
